From patent publication US20040171688A1, “Carboxylic acids and derivatives thereof and pharmaceutical compositions containing them” (priority 1997, published 2004)

Target: T1, HNF-4α (Rattus norvegicus, UniProt P22449)
T1 construct: GST-HNF-4α(LBD) fusion protein consisting of amino acids 96-455 of wild type HNF-4α fused to GST; fused on or other part: Glutathione-S-transferase (GST) at the N-terminus of the LBD construct; 6-histidine tag on the full-length construct
T1 sequence (P22449 105-464 isoform P22449-2 limits assumed): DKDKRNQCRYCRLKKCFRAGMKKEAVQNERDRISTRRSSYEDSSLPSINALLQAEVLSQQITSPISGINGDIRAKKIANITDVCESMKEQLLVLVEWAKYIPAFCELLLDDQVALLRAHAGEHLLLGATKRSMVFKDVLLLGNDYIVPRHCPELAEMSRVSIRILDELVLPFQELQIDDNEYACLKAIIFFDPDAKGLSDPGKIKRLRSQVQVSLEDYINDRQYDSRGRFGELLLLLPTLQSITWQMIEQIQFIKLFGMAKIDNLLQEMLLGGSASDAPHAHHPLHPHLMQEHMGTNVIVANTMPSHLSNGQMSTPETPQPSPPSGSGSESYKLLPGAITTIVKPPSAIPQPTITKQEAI
Experiment: Ligand binding assay with [3H]palmitoyl(16:0)-CoA on recombinant GST-HNF-4α(LBD) or His-HNF-4α
Conditions: competition with 8 nM [3H]palmitoyl(16:0)-CoA; GST-HNF-4α(LBD) or His-HNF-4α; read-out: EC50 (50% specific competition)
Experimental: a. […] The respective recombinant proteins are incubated to equilibrium with [^3H]palmitoyl(16:0)-CoA (0.05 μCi) and with increasing nonlabeled palmitoyl(16:0)-CoA as indicated.
b. […] The respective recombinant proteins are incubated with 8 nM of [^3H]palmitoyl(16:0)-CoA (60 Ci/mmol) and with increasing nonlabeled myristoyl(14:0)-CoA as indicated. Percent bound refers to radiolabeled [^3H]palmitoyl(16:0)-CoA in the bound fraction. […] Percent bound refers to radiolabeled [^3H]palmitoyl(16:0)-CoA in the bound fraction.
Rat HNF-4α1 cDNA(pLEN4S)^1 was subcloned into the glutathione-S-transferase (GST) encoding pGEX-2T plasmid (Pharmacia) and the resultant plasmid was cleaved with smaI and AccI and religated to yield the GST-HNF-4α(LBD) fusion plasmid. […] The full length HNF-4α1 cDNA cloned into 6His-pET11d vector was expressed in E.coli BL21 (DE3)plysS.
Recombinant GST-HNF-4α(LBD) (100 pmol) or His-HNF-4α (100 pmol) were incubated for 60 min at 22° C. with [^3H]palmitoyl(16:0)-CoA (American RadiolabeledChemicals) in 100 μl of 10 mM phosphate buffer (pH 7.4). Competitor ligands or solvent carrier were added as indicated. Free and HNF-4α bound ^3[H]palmitoyl(16:0)-CoA were separated by […] and bound ligand was quantified by liquid scintillation counting. Nonspecific binding of [^3H]palmitoyl(16:0)-CoA was determined by its binding to the GST moiety or to carbonic anhydrase as nonrelevant protein.
Binding was exemplified with either the ligand binding domain of HNF-4α fused to glutathione-s-transferase (GST-HNF-4α(LBD)) or the full length HNF-4α protein tagged by 6 histidines (His-HNF-4α).

| EC50 [nM] | SMILES |
| --- | --- |
| 2700 | CCCCCCCCCCCCCCCCCC(=O)SCCNC(=O)CCNC(=O)[C@H](O)C(C)(C)COP(=O)(O)OP(=O)(O)OC[C@H]1O[C@@H](n2cnc3c(N)ncnc32)[C@H](O)[C@@H]1OP(=O)(O)O [Stearoyl(18:0)-CoA] |
| 1400 | CCCCCCCCCCCCCC(=O)SCCNC(=O)CCNC(=O)[C@H](O)C(C)(C)COP(=O)(O)OP(=O)(O)OC[C@H]1O[C@@H](n2cnc3c(N)ncnc32)[C@H](O)[C@@H]1OP(=O)(O)O [myristoyl(14:0)-CoA, reference compound] |
